In US20080075767A1, “IBUPROFEN-CONTAINING LIQUID FILLED HARD CAPSULES” (priority 2006, published 2008):
Read-outs that look alike come from different tables or passages of the source.

Legend:
[1] = Excerpt: Different solvent systems such as oils and medium chain triglycerides, solubilizing agents, emulsifying agents (self-emulsifying) and surfactants for the liquid filled capsules were screened for their effectiveness in solubilizing ibuprofen and are listed in Tables 5 to 6.
The screening method involved the following steps:
2. Step T2: the sample was heated using a hot plate and stirrer to facilitate ibuprofen solubility in the vehicle and the samples were left overnight.
3. […] Additional ibuprofen was added by reheating selected T2 solutions until re-crystallization or precipitation was observed.
Observations on whether ibuprofen appeared as dissolved, a suspension (fine suspension) or crystallized (agglomerates) were reported.

[2] = Ibuprofen lysinate vehicle screening; conditions: ibuprofen lysinate (IBL) in the excipient named; outcome in Comments cell beside
[3] = Ibuprofen vehicle screening (single excipients); type: physicochemical; conditions: for Approx. Percentage of API that Resulted in Precipitate: ibuprofen USP in the excipient named, precipitate within approx. 24 h after cooling to room temperature, * = close to saturation point, only a few crystals
Procedure: Initially, ibuprofen United States Pharmacopeia grade (USP) powder was mixed at room temperature with individual excipients being considered as shown in Table 1. Ibuprofen was incrementally added and mixed until a precipitate was observed. […] Observations were made daily to determine if the mixture would remain a solution or precipitate out within an approximately 24 hour period.

[4] = Water activity (Rotronic Hygrolab); type: physicochemical; conditions: water activity at 19.56-19.87 °C

Amt of API added [1] [mg] | Observation [1] | Approximate Percentage of IBL salt added in powder form to excipient and heated [2] [%] | Approx. Percentage of API that Resulted in Precipitate [3] | Amt of API added ([1]; 24 h) [mg] | Observation ([1]; 24 h) | Approx. Max. Percentage of API in Solution Tested ([3]; ibuprofen USP in the single excipient named, melted in on hot plate, remained in solution approx. 24 h) [%] | Compound | AW Reading [4]
250.0 | Turbid (T1) | 2.2 | 2.5% | – | – | – | OCC(O)CO [Glycerin] | –
– | – | 2.4 | 28 * % | 4000.0 | Crystallized (T3) | 17 | CC(O)CO (stereo not drawn) [Propylene Glycol] | –
– | – | – | – | – | – | – | O [Water] | 0.999
257.8 | Solidify (T1) | – | – | – | – | – | Castor Oil | –
